The source of these data is patent US9926529B2, “Derivation of neural stem cells and dopaminergic neurons from human pluripotent stem cells” (International Stem Cell Corporation, priority 2012, dated 2018).

Holding throughout (format): cell-based, human
Test [1] concerns hPSC-NSCs. Kind of test: Dopamine ELISA of conditioned medium (dopamine release). As to the method:
To obtain DA neurons, hPSC-NSC were first primed into DA precursors with 100 ng/mL FGF8 and 2 μM Purmorphamine for 7 days and then used to screen for small molecules that induce terminal dopaminergic differentiation (FIG. 6A). The DA precursors were plated at 2000 cells/well of a 96-well plate and treated with a small molecule library (Tocris 1120 biologically active compounds) at 2.5 μM for two weeks (FIG. 6A). Dopaminergic differentiation was assessed by neurite outgrowth and ELISA analysis for dopamine release (FIG. 6A). From this screen, guggulsterone (GS), a naturally occurring steroid, was identified among the best inducers of dopaminergic differentiation (FIG. 6A). After 30 days of differentiation, GS-treated neurons appeared mature with elaborate neurite extensions. […] Spontaneous action potentials were recorded in whole cultures of GS-treated neurons using a microelectrode array (MEA) system (FIG. 6J). […]
Conditioned medium from the top neurite inducers (Table 1) (wells containing the highest density of neurites compare to control 0.1% DMSO treated) were collected and analyzed using a dopamine ELISA assay (Cosmo Bio). […] Supernatant was then collected and analyzed for quantitative determination of dopamine using a commercial dopamine ELISA assay kit (CusaCosmo Bio). Data analysis was performed using the microtiter plate reader (BIO-TEK Synergy 2). […]

The next test has as its system hPSC-derived DA neurons. Kind of test: Whole cell patch clamp electrophysiology of GS-treated neurons. The settings on record: current clamp, after 90 days of GS treatment. As to the method: Whole cell patch clamp electrophysiology methods. For electrophysiological recordings, the cells were transferred to a recording chamber mounted on an inverted Olympus microscope. During the recordings the temperature was maintained at 31-32° C., and the cells perfused at constant flow of 1 ml/min. with 150 mM NaCl, 4 mM KCl, 1.8 mM CaCl2, 1 mM MgCl2, 10 mM HEPES, 10 mM Glucose at pH 7.30 and 315 mOsm. Whole-cell recordings were obtained using borosilicate electrodes with tip resistance of 2-3 MΩ, filled with 130 mM K-Gluconate, 5 mM NaCl, 5 mM KCl, 10 mM HEPES, 20 mM Sucrose, 0.3 mM EGTA, 3 mM MgATP at pH 7.30 and 290 mOsm. Data were acquired using an HEKA EPC-10 digitizer/amplifier. Once whole-cell access was achieved the resting membrane potential was immediately recorded; the cells were then allowed to equilibrate for 3-5 min. From a resting membrane potential of −70 mV, the cells were then depolarized in current-clamp mode with 200 ms current injections, delivered at 0.2 Hz., and with increasing amplitude from 50 pA to up to 1000 pA to induce action potentials. The presence of inward or outward currents was determined by applying a voltage ramp. Cells with unstable recording configuration or for which the series resistance became larger than 15MΩ were excluded from the study. Twenty different cells were recorded and action potentials were obtained from 7 patch-clamped cells.
Background: The patch-clamp technique gives a direct electrical read-out from membranes.

The test system of test [2] is hPSC-NSCs. Description: Percentage of TH positive cells produced by chemical treatment. The settings on record: chemical treatment 2.5 μM for two weeks. As to the method: The method specifically involved treating both hESC-H9-NSCs (Invitrogen) and hPSC-NSCs with Purmorphamine (2 μM) and FGF8 (100 ng/mL) in NB medium [NeuroBasal medium, 1× GlutaMAX, 1× N2/B27 Supplement (Invitrogen)] for 7 days. After 7 days of Purmorphamine and FGF8 treatment, the NSCs were dissociated with Accutase (Sigma) and plated 20,000 cells/mL into Matrigel coated 96 well plates and treated with small molecule library (Torcris 1120 Biologically Active Compounds) at 2.5 μM final concentration for two weeks (FIG. 6A). Two weeks after treatment with small molecules, all wells were visually observed and scored based on neurite density and dopamine release. For measuring neurite density, cells were fixed with 4% paraformaldehyde and phase contrast images were acquired using Cellavista Cell Imaging System (Roche Applied Science) from randomly selected fields. Neurite density was measured using the Cellavista density software image processing program. Each experimental condition was done in duplicate wells, and at least three independent experiments were conducted to acquire the final results.
Conditioned medium from the top neurite inducers (Table 1) (wells containing the highest density of neurites compare to control 0.1% DMSO treated) were collected and analyzed using a dopamine ELISA assay (Cosmo Bio). Conditioned medium was collected from samples containing 50,000 cells per well and centrifuged at 3000 RPM to remove cell debris. Supernatant was then collected and analyzed for quantitative determination of dopamine using a commercial dopamine ELISA assay kit (CusaCosmo Bio). Data analysis was performed using the microtiter plate reader (BIO-TEK Synergy 2). The results presented are from three independent experiments (n=3) and represented as mean±standard error of mean (s.e.m.) and statistical analysis was performed using the two-tailed Student's t-test with a confidence level of 95% (α=0.05) with statistical significance of P<0.05. Additionally, total RNA from each well were collected and analyze by RT-PCR for expression of TuJ1, MAP2, TH, GRK2, EN1, DAT, AADC, PAX2, NURR1, PITX3 and LMX1B from hPSC-NSCs (Table 2). […] Analysis of the ELISA data indicated the top small molecule neurite inducers produced higher levels of dopamine than control non-treated cells (1.5 ng/mL). […] The percentages of TH positive cells produced by chemical treatment with Kenpaullone (33%), Guggulsterone (35%), Kynurenic Acid (19%), Immedthridine Dihydrobromide (21%), and Dimaprit Dihydrochloride (18%) were higher than 15% of TH positive cells obtained from hPSC-NSCs differentiated for ≥1 month using a standard dopaminergic differentiation medium (BDNF 20 ng/mL, GDNF 20 ng/mL, cAMP 200 μM, Abscorbic Acid 200 μM, TGFβ3 2 ng/mL and DAPT).

The structures appear in SMILES notation.

As for `C/C=C1\C(=O)C[C@H]2[C@@H]3CCC4=CC(=O)CC[C@]4(C)[C@H]3CC[C@]12C` [Guggulsterone], in the test on hPSC-NSCs [1] (control: NSCs 1 week FGF8 and purmorphamine, 2 weeks 0.1% DMSO instead of GS), the “increase in dopamine secretion compared to control cells (ELISA)” value is recorded as “five-fold increase”. The “levels of Dopamine spontaneous release” value in the test on hPSC-NSCs [1] (treated hPSC-NSCs, compared among top hits) is given as “highest levels”. For the same compound, in the test on hPSC-derived DA neurons, the “patch-clamped cells in which action potentials were found” value is reported as 7 out of 20. In the test with hPSC-NSCs [2], the “percentage of TH positive cells” value was 35%.
